The subject of one assay is locomotor activity. To be noted: administered alone; cited from earlier work.
Assay [1] concerns the target human serotonin 5-HT2A receptor (Homo sapiens, UniProt P28223). As to the kind of experiment: Radioligand competitive displacement binding, 5-HT2A.
The target of assay [2] is human serotonin 5-HT2B receptor (Homo sapiens, UniProt P41595). As to the kind of experiment: Radioligand competitive displacement binding, 5-HT2B.
For another assay, the system named is 5-HT2A receptor. To be noted: cited from earlier work.

Each structure is given as a SMILES string.

Usually Ki stands for the equilibrium dissociation constant of an inhibitor or competing ligand from its target.

Sequence of human serotonin 5-HT2A receptor (P28223 whole entry): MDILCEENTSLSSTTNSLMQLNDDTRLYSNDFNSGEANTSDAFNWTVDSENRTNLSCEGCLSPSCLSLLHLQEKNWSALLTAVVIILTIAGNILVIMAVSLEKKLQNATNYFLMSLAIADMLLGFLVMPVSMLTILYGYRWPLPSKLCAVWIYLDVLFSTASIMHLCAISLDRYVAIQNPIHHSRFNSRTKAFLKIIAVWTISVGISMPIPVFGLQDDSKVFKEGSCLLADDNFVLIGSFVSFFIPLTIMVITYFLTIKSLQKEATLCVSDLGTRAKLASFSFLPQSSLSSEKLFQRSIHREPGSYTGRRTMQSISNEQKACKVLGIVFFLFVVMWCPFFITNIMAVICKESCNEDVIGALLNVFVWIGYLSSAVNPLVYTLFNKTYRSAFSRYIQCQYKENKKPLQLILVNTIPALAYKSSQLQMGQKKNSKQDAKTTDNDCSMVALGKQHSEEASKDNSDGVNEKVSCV
Sequence of human serotonin 5-HT2B receptor (P41595 whole entry): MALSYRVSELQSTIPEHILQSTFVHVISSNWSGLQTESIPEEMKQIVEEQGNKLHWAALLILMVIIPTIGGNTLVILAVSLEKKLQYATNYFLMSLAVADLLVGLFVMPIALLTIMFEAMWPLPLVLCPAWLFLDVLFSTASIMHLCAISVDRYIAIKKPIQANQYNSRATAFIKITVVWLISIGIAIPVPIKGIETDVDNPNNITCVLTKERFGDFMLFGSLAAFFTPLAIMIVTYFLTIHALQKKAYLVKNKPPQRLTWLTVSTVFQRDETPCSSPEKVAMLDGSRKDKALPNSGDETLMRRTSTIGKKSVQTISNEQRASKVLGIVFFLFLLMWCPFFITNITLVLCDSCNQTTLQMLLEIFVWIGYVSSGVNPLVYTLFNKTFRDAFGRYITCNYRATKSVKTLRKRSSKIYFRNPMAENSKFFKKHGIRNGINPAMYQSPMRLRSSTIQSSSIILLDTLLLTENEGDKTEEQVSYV

As to `CN1CCN(C2=Nc3cc(Cl)ccc3Nc3ccccc32)CC1` [clozapine], the “effect on locomotor activity” value in the assay on locomotor activity was “suppressed locomotor activity”. Consider `CN(C)[C@@H]1Cc2ccccc2[C@@H](c2ccccc2)C1` [(+)-trans-PAT, trans-4-phenyl-N,N-dimethyl-1,2,3,4-tetrahydronaphthalen-2-amine], for which the Ki worked out at 470 nM in assay [1] and 240 nM in assay [2]. `CN(C)[C@@H]1Cc2ccccc2[C@@H](c2ccccc2)C1` (relative stereo) [(−)-trans-PAT, (2S, 4R)-(−)-trans-4-phenyl-N,N-dimethyl-1,2,3,4-tetrahydronaphthalen-2-amine]: in the assay with 5-HT2A receptor, the “functional activity at 5-HT2A receptors” value is reported as “inverse agonist (and competitive antagonist) activity”.

The values are drawn from article PMC4363177 (Bioorganic & medicinal chemistry, 2015).
